Measurements taken from US5389614A (Cassella AG, priority 1991, dated 1995).
Read-outs that look alike come from different tables or passages of the source.

Tests used:
[1] = target: T1, fibrinogen receptor (glycoprotein IIb/IIIa) (Homo sapiens, UniProt P05106+P08514); test: Inhibition of bonding of 125I-fibrinogen to its receptor on intact, gel-filtered human platelets; assay type: binding; conditions: inhibition of 125I-fibrinogen bonding after stimulation with ADP (10 μM), read-out: K1 (μm), ADP stimulated
T1 construct: its receptor (glycoprotein IIb/IIIa) on intact, gel-filtered human platelets; endogenous in cells; host or cells: gel-filtered human platelets from donor blood, stimulated with ADP (10 µM)
T1 sequence (P08514 32-887 limits assumed): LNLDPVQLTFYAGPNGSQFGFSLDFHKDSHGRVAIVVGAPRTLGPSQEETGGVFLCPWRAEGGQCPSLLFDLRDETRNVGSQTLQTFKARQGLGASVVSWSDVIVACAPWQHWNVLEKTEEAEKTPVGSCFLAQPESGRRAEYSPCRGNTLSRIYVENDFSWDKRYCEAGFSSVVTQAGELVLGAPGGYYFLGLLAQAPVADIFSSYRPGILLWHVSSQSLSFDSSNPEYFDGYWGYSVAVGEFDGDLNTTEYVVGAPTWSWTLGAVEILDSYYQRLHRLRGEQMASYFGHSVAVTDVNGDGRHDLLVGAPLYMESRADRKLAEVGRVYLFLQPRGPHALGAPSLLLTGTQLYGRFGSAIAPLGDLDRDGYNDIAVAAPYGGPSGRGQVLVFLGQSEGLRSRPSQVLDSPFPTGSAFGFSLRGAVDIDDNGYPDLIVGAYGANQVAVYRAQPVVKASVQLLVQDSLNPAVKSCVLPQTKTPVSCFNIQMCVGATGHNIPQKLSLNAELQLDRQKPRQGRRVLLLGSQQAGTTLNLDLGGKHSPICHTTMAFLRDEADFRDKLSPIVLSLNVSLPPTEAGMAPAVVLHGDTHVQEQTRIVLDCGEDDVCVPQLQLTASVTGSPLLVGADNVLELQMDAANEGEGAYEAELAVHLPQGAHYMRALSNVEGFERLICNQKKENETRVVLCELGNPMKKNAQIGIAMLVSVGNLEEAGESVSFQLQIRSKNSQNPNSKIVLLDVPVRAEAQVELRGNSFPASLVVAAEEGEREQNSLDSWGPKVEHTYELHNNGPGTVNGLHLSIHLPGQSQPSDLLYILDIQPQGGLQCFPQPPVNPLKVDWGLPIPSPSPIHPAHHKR
T1 sequence (P08514 891-1039 partner limits assumed): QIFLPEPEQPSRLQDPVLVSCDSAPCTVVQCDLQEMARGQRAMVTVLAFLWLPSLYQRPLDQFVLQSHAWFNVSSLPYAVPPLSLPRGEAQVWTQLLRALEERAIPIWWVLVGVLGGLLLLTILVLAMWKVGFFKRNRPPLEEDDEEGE
T1 sequence (P05106 27-788): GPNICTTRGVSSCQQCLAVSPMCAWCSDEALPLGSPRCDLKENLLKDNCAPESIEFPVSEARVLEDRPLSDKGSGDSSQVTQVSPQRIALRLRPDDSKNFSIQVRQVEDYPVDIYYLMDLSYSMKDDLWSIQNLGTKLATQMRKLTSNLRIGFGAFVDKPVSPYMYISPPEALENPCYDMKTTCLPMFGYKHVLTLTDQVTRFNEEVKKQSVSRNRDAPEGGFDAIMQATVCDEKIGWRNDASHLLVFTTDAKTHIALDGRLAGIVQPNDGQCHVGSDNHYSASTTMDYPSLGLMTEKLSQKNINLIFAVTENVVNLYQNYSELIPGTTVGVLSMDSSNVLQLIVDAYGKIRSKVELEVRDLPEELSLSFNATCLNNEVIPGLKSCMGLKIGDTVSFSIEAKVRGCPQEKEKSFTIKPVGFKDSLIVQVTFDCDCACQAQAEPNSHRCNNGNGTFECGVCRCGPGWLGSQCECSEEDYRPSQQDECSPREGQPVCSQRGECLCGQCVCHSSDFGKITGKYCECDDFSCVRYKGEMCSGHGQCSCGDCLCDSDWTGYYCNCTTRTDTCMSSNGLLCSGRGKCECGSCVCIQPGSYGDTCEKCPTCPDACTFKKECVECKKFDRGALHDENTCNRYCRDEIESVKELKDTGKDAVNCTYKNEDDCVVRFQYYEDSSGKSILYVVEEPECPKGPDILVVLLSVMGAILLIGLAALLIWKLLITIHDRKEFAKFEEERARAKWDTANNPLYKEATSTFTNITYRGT
Experimental: (§1) The compounds are tested above all for their inhibiting action on blood platelet aggregation and the adhesion of fibrinogen to blood platelets.
(§2) Gel-filtered blood platelets from human donor blood activated with ADP or thrombin are used.
A) Inhibition of bonding of fibrinogen to its receptor (glycoprotein IIb/IIIa) on intact, gel-filtered human platelets by the compounds according to the invention is tested. The Ki value of the inhibition of the bonding of ^125 I-fibrinogen after stimulation with ADP (10 μM) is stated.
Literature: J. S. Bennett and G. Vilaire, J. Clin. Invest. 64 (1979), 1393-1401

[2] = system: gel-filtered human platelets; test: Inhibition of aggregation of gel-filtered human platelets after ADP or thrombin stimulation; assay type: cell-based; conditions: platelet aggregation
Experimental: as §1, §2
B) As a functional test, the inhibition of aggregation of gel-filtered human platelets by the compounds according to the invention after ADP or thrombin stimulation is measured. The IC50 value of the inhibition is stated.

[3] = ADP stimulation, read-out: IC50 (μM), ADP-stimulated
[4] = thrombin stimulation, read-out: IC50 (μM), Thrombin-stimulated
[5] = Homo sapiens, ADP stimulation, read-out: IC50 (μM), ADP-stimulated
[6] = Homo sapiens, thrombin stimulation, read-out: IC50 (μM), Thrombin-stimulated

| IC50 [2, 3] | IC50 [2, 4] | SMILES | Ki [1] | IC50 [2, 5] | IC50 [2, 6] |
| --- | --- | --- | --- | --- | --- |
| 0.7 µM | 0.3 µM | CC(C)[C@H](NC(=O)[C@H](CC(=O)O)NC(=O)CN1C(=O)NC(Cc2ccc(C(=N)N)cc2)C1=O)C(=O)OCc1ccccc1 (stereo partly drawn) [Example 21, (5-(R,S)-(4-Formamidinobenzyl) -2,4-dioxo-imidazolidin-3-yl) -acetyl-L-aspartyl-L-valine benzyl ester] | 240 nM |  |  |
| 0.2 µM | 0.1 µM | N=C(N)c1ccc(CC2NC(=O)N(CC(=O)N[C@@H](CC(=O)O)C(=O)N[C@H](C(=O)O)c3ccccc3)C2=O)cc1 (stereo partly drawn) [Example 5, [5-(S,R)-(4-Formamidino-benzyl) -2,4-dioxoimidazolidin-3-yl]-acetyl-L-aspartyl-L-phenylglycine] | 22 nM |  |  |
| 30 µM | 4 µM | CC(C)[C@H](NC(=O)[C@H](CC(=O)O)NC(=O)CN1C(=O)N[C@@H](CCCCN)C1=O)C(=O)O [Example 3, [5-(S)-(4-Amino-butyl)-2,4-dioxoimidazolidin-3-yl]-acetyl-Asp-Val-OH] |  |  |  |
| 0.35 µM | 0.4 µM | N=C(N)c1ccc(CC2NC(=O)N(CC(=O)N[C@@H](CC(=O)O)C(=O)N[C@@H](CCCCN)C(=O)O)C2=O)cc1 (stereo partly drawn) [Example 13, (5-(R, S)-(4-Formamidinobenzyl)-2,4-dioxo-imidazolidin-3-yl) -acetyl-L-aspartyl-L-lysine] | 42 nM |  |  |
| 0.8 µM | 0.25 µM | N=C(N)c1ccc(CC2NC(=O)N(CC(=O)N[C@@H](CC(=O)O)C(=O)N[C@@H](Cc3c[nH]c4ccccc34)C(=O)O)C2=O)cc1 (stereo partly drawn) [Example 22, (5-(R,S)-(4-Formamidinobenzyl)-2,4-dioxo-imidazolidin-3-yl)-acetyl-L-aspartyl-L-tryptophan] | 140 nM |  |  |
| 0.2 µM | 0.1 µM | CC[C@H](C)[C@H](NC(=O)[C@H](CC(=O)O)NC(=O)CN1C(=O)NC(Cc2ccc(C(=N)N)cc2)C1=O)C(=O)O (stereo partly drawn) [Example 12, (5-(R,S)-(4-Formamidinobenzyl)-2,4-dioxo-imidazolidin-3-yl)-acetyl-L-aspartyl-L-isoleucine] | 42 nM |  |  |
| 7 µM | 2.5 µM | NCc1ccc(CC2NC(=O)N(CC(=O)N[C@@H](CC(=O)O)C(=O)N[C@H](C(=O)O)c3ccccc3)C2=O)cc1 (stereo partly drawn) [Example 19, (5-(4-Aminomethylbenzyl)-2,4-dioxo-imidazolidin-3-yl)-acetyl-L-aspartyl-L-phenyglycine] |  |  |  |
| 4.5 µM | 4 µM | CCCCCCCCCCCCCCCCOC(=O)[C@@H](NC(=O)[C@H](CC(=O)O)NC(=O)CN1C(=O)NC(Cc2ccc(C(=N)N)cc2)C1=O)c1ccccc1 (some centres unmarked) [Example 17] |  |  |  |
| 4.5 µM | 2.5 µM | CN(C(=O)[C@H](CC(=O)O)NC(=O)CN1C(=O)NC(Cc2ccc(C(=N)N)cc2)C1=O)[C@H](C(=O)O)c1ccccc1 (stereo partly drawn) [Example 20, (5-(R,S)-(4-Formamidinobenzyl)-2,4-dioxo-imidazolidin-3-yl)-acetyl-L-aspartyl-(N-methyl)-L-phenylglycine] | 1590 nM |  |  |

More lines, now with the values behind:

| SMILES | IC50 [2, 3] | IC50 [2, 4] | Ki [1] | IC50 [2, 5] | IC50 [2, 6] |
| --- | --- | --- | --- | --- | --- |
| N=C(N)c1ccc(CC2NC(=O)N(CC(=O)NCCC(=O)O)C2=O)cc1 (racemic) [Example 6, [5-(S,R)-(4-Formamidino-benzyl) -2,4-dioxoimidazolidin-3-yl]-acetyl-β-alanine] | 5.5 µM | 3 µM | 1910 nM |  |  |
| CC(C)[C@H](NC(=O)[C@H](CC(=O)O)NC(=O)CN1C(=O)NC(Cc2ccc(C(=N)N)cc2)C1=O)C(=O)O (stereo partly drawn) [Example 1, [5-(S,R )-(4-Formamidino-benzyl)-2,4-dioxoimidazolidin-3-yl]-acetyl-L-aspartyl-L-valine.] | 0.4 µM | 0.15 µM | 31 nM |  |  |
| N=C(N)c1ccc(CC2NC(=O)N(CC(=O)N[C@@H](CC(=O)O)C(=O)N[C@@H](Cc3ccccc3)C(=O)O)C2=O)cc1 (stereo partly drawn) [Example 14, (5-(R,S)-(4-Formamidinobenzyl)-2,4-dioxo-imidazolidin-3-yl)-acetyl-L-aspartyl-L-phenylalanine] | 0.55 µM | 0.3 µM | 270 nM |  |  |
| CC(C)[C@H](NC(=O)[C@H](CC(=O)O)NC(=O)CN1C(=O)N[C@@H](Cc2ccc(N)cc2)C1=O)C(=O)O [Example 7] |  |  | 2430 nM |  |  |
| CC(C)[C@H](NC(=O)[C@H](CC(=O)O)NC(=O)CCN1C(=O)N[C@@H](CCCCN)C1=O)C(=O)O [Example 32] |  |  | 2710 nM | 6 µM | 2 µM |
| NCc1ccc(C=C2NC(=O)N(CC(=O)N[C@@H](CC(=O)O)C(=O)N[C@H](C(=O)O)c3ccccc3)C2=O)cc1 [Example 15] |  |  | 280 nM | 0.7 µM | 0.45 µM |
| CC(C)[C@H](NC(=O)[C@H](CC(=O)O)NC(=O)CN1C(=O)[C@H](CCCNC(=N)N)N(C)C1=O)C(=O)O [Example 2] |  |  | 400 nM | 4.5 µM | 1.5 µM |
| CC(C)[C@H](NC(=O)[C@H](CC(=O)O)NC(=O)c1cccc(N2C(=O)N[C@@H](CCCNC(=N)N)C2=O)c1)C(=O)O [Example 11, 3-(5-(S)-(3-Guanidinopropyl)-2,4-dioxoimidazolidin-3-yl)benzoyl-L-aspartyl-L-valine] |  |  | 1870 nM |  |  |
| C[C@@H](O)[C@H](NC(=O)[C@H](CC(=O)O)NC(=O)CN1C(=O)NC(Cc2ccc(C(=N)N)cc2)C1=O)C(=O)O (stereo partly drawn) [Example 16, (5-(R,S)-(4-Formamidinobenzyl)-2,4-dioxo-imidazolidin-3-yl) -acetyl-L-aspartyl-L-threonine] | 0.7 µM | 0.2 µM | 120 nM |  |  |
| CC(C)[C@H](NC(=O)[C@H](CC(=O)O)NC(=O)CN1C(=O)N[C@@H](Cc2ccc(NC(=N)N)cc2)C1=O)C(=O)O [Example 8] |  |  | 710 nM | 6 µM | 3 µM |
